Patent US5770613A, “Telomerase inhibitors” (Geron Corporation, priority 1995, dated 1998)
“Also recorded” adds a separate entry of the source.

Experiments:
[1] = target: T1, telomerase (Homo sapiens, UniProt O14746); test: Inhibition of telomerase activity (IC50); assay type: biochemical; conditions: approximate values (Table 2)
T1 construct: preferably a cellular extract or other preparation containing telomerase; endogenous in cells

[2] = test system: Topoisomerase II; test: Enzyme-mediated DNA cleavage assay (Topoisomerase II targeting / cleavable complex formation); assay type: biochemical
Experimental: Compound V was tested for its ability to target Topoisomerase II in a standard enzyme-mediated DNA cleavage assay. The well known anti-tumor agent VP-16 was used as a positive control. […] The amount of linear DNA was proportional to the concentration of Compound V used in the experiment.

[3] = test system: IMR-90 cells; test: Long-term exposure of cell colonies, induction of senescence; assay type: cell-based; conditions: 5 μM, added every second day; versus DMSO control
Experimental: (§1) Colonies of the ovarian tumor cell lines OVCAR-5, SK-OV-3 and IMR-90 cells were prepared using standard methods and materials. In one test, the colonies were prepared by seeding 15-centimeter dishes with about 10^6 cells in each dish. The dishes were incubated to allow the cell colonies to grow to about 80% confluence, at which time each of the colonies was divided into two groups. One group was exposed to a subacute dose of Compound V (5 μM) 4-8 hours after plating following the split; the other group was exposed to a DMSO control.
(§2) Each group was then allowed to continue to divide, and the groups were split evenly again (near confluence). The same number of cells were seeded for continued growth. The compound or control was added every second day to the samples at the same concentration delivered initially (5 μM). […] No effect was seen on SK-OV-3 cells.

[4] = test system: OVCAR-5 cells; test: Long-term exposure of cell colonies, effect on growth; assay type: cell-based; conditions: 5 μM, added every second day; versus DMSO control
Experimental: as §1, §2

[5] = test system: SK-OV-3 cells; test: as above; assay type: cell-based; conditions: 5 μM, added every second day; versus DMSO control
Experimental: as §1, §2

[6] = test system: Single-Stranded DNA Binding Protein (SSB); test: Specificity screen versus telomerase; assay type: biochemical; conditions: from IC50 screening
Source text: (§3) Compound V was screened for activity (IC50) against telomerase and several enzymes having nucleic acid binding or modifying activities related to telomerase using standard techniques. The enzymes screened included Telomerase, Topoisomerase II, Terminal Transferase and Single-Stranded DNA Binding Protein (SSB).

[7] = test system: Terminal Transferase; test: Specificity screen versus telomerase; assay type: biochemical; conditions: from IC50 screening
Source text: as §3

[8] = test system: Topoisomerase II; test: Specificity screen versus telomerase; assay type: biochemical; conditions: from IC50 screening
Source text: as §3

[9] = target: T1, telomerase; test: specificity in IMR-90, OVCAR-5 and SK-OV-3 cell samples (Topoisomerase II, Single-Strand Binding Protein, Terminal Transferase); assay type: cell-based; conditions: cell samples dosed at one quarter of the IC50 for telomerase, versus Topoisomerase II
Experimental: In on experiment, Compound V was administered to IMR-90, OVCAR-5, and SK-OV-3 cell samples at a concentration one quarter that of its IC50 for telomerase. The effects of Compound V on the activity of Topoisomerase II, Single-Strand Binding Protein, and Terminal Transferase were then determined using standard methodologies.

[10] = test system: IMR-90; test: XTT assay for cytotoxicity; assay type: cell-based; conditions: Homo sapiens, 72 hours, 3 μM to 1,000 μM, read-out: LD50 (the source's name)
Experimental: (§4) The XTT assay for cytotoxicity was performed using the ovarian tumor cells lines IMR-90, OVCAR-5 and SK-OV-3. Cells from the normal human cell line BJ were used as a control. The cell lines used in the assay were exposed to Compound V of the invention for 72 hours at concentrations ranging from 3 μM to 1,000 μM. During this period, the optical density (OD) of the samples was determined for light at 540 nanometers (nm).

[11] = test system: OVCAR-5; test: XTT assay for cytotoxicity; assay type: cell-based; conditions: Homo sapiens, 72 hours, 3 μM to 1,000 μM, read-out: LD50 (the source's name)
Experimental: as §4

[12] = test system: SK-OV-3; test: XTT assay for cytotoxicity; assay type: cell-based; conditions: Homo sapiens, 72 hours, 3 μM to 1,000 μM, read-out: LD50 (the source's name)
Experimental: as §4

[13] = test system: OVCAR-5 tumor cells; test: Human tumor xenograft model in nude mice, tumor mass; assay type: in vivo
Experimental: In vivo testing was also performed using a mouse xenograft model in which OVCAR-5 tumor cells were grafted onto nude mice. […] In contrast, mice treated with a control (DMSO) are expected to have tumor masses that continue to increase.
A human tumor xenograft model in which OVCAR-5 tumor cells were grafted into nude mice was constructed using standard techniques and materials. The mice were divided into two groups. One group was treated intraperitoneally with Compound V. The other group was treated with a control comprising DMSO and phosphate buffer solution (PBS). The average tumor mass for mice in each group was determined periodically following the xenograft using standard methods and materials.

T1 sequence (O14746 whole entry): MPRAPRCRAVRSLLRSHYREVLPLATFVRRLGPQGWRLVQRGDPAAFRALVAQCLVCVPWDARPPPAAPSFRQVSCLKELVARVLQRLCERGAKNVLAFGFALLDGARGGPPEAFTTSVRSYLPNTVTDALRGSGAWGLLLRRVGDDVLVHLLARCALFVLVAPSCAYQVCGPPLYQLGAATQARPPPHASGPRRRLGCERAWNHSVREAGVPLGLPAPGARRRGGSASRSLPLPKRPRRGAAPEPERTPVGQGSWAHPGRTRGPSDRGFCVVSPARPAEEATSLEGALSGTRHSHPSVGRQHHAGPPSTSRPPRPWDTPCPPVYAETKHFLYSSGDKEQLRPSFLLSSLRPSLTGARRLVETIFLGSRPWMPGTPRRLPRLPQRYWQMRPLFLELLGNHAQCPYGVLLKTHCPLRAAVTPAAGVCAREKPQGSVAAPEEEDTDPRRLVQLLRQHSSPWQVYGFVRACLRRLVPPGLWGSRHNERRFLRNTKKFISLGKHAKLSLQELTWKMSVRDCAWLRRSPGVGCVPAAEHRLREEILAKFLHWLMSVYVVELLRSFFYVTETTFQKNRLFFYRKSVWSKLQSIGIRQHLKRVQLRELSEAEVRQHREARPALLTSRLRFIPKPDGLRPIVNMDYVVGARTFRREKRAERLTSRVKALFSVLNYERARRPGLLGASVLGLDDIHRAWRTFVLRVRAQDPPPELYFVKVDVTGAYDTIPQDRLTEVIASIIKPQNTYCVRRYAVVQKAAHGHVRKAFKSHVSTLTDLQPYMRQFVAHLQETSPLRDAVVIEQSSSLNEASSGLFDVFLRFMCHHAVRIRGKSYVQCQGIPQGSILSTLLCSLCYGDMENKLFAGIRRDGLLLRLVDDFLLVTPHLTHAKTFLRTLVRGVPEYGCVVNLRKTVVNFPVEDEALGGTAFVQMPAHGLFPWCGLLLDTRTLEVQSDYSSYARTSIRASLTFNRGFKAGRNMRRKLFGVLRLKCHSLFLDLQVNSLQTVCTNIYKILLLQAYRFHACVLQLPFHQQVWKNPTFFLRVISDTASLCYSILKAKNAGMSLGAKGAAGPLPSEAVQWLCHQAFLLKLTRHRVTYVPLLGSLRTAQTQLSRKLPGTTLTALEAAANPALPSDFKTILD

SMILES: N#Cc1ccc(C=O)nc1SCc1ccc(Cl)s1 [Compound IX]
- IC50 [1]: 5 µM

SMILES: N#Cc1ccc(C=O)nc1SCc1ccc(Cl)c(Cl)c1 [Compound V]
- IC50 [1]: 4.5 µM
- Topoisomerase II-mediated DNA cleavage (linear DNA in agarose gel) ([2]; VP-16 as positive control): targeted Topoisomerase II
- cleavable complex formation in Topoisomerase II, level of activity versus adriamycin and mitoxantrone ([2]; compared with adriamycin and mitoxantrone): greater than the well-known anti-tumor agents adriamycin and mitoxantrone; also recorded: stronger Topoisomerase II-targeting antitumor agent than the known Topoisomerase II-targeting agents adriamycin and mitoxantrone
- inhibitory activity with respect to Topoisomerase II ([2]; qualitative statement): display inhibitory activity with respect to Topoisomerase II; also recorded: demonstrate inhibitory activity with respect to Topoisomerase II
- Topoisomerase II activity relative to VP-16 ([2]; relative to VP-16): one fifth the activity of VP-16
- induction of senescence earlier than DMSO control [3]: approximately 5 period doublings
- effect on cell growth [4]: small effect
- effect on cells [5]: No effect
- lower specificity for Single-Stranded DNA Binding Protein (SSB) as compared to telomerase [6]: ≥ 5 fold
- lower specificity for Terminal Transferase as compared to telomerase [7]: ≥ 5 fold
- lower specificity for Topoisomerase II as compared to telomerase [8]: ≥ 5 fold
- specificity for telomerase (factor) [9]: about 5
- IC50 [10]: 5 µM
- IC50 [11]: 15 µM
- IC50 [12]: 10 µM
- tumor growth ([13]; 10 mg/(kg.day), intraperitoneal): not affected
- increase in tumor weight ([13]; 25 mg/(kg.day), intraperitoneal): practically ceased after about 50 days
- tumor mass over time ([13]; average, after increase for a period following initial dosing): began to level with continuing treatment
- tumor growth as compared to vehicle ([13]; intraperitoneal, p<0.05, unpaired t-test): statistically significant slowing of tumor growth

SMILES: N#Cc1ccc(C=O)nc1OCc1ccc(Cl)c(Cl)c1 [Compound XIII]
- IC50 [1]: 12.8 µM

SMILES: N#Cc1ccc(C=O)nc1SCC(=O)c1ccc(Cl)cc1 [Compound XII]
- IC50 [1]: 15.1 µM

SMILES: N#Cc1ccc(C=O)nc1SCc1ccc(CSc2nc(C=O)ccc2C#N)cc1 [Compound XIX]
- IC50 [1]: 5 µM

SMILES: N#Cc1ccc(C=O)nc1SCC(=O)c1ccc(Cl)cc1Cl [Compound XI]
- IC50 [1]: 27 µM

SMILES: N#Cc1ccc(C=O)nc1SCc1ccccc1CSc1nc(C=O)ccc1C#N [Compound XVIII]
- IC50 [1]: 6 µM

SMILES: N#Cc1ccc(C=O)nc1SCc1cccc(CSc2nc(C=O)ccc2C#N)c1 [Compound XVII]
- IC50 [1]: < 3.2 µM

SMILES: Cc1cc(C)c(CSc2nc(C=O)ccc2C#N)c(C)c1CSc1nc(C=O)ccc1C#N [Compound XVI]
- IC50 [1]: < 3.2 µM

SMILES: Cc1cc(C)c(CSc2nc(C=O)ccc2C#N)cc1CSc1nc(C=O)ccc1C#N [Compound XV]
- IC50 [1]: < 3.2 µM

SMILES: Cc1cc(CSc2nc(C=O)ccc2C#N)c(C)cc1CSc1nc(C=O)ccc1C#N [Compound XXIII]
- IC50 [1]: 7 µM

SMILES: Cc1c(C)c(CSc2nc(C=O)ccc2C#N)c(C)c(CSc2nc(C=O)ccc2C#N)c1C [Compound XXII]
- IC50 [1]: 4 µM

SMILES: N#Cc1ccc(C=O)nc1SCc1ccccc1-c1ccccc1CSc1nc(C=O)ccc1C#N [Compound XXIV]
- IC50 [1]: < 3.2 µM

SMILES: N#Cc1ccc(C=O)nc1SCc1c2ccccc2c(CSc2nc(C=O)ccc2C#N)c2ccccc12 [Compound XXIX]
- IC50 [1]: 7 µM

SMILES: N#Cc1ccc(C=O)nc1SCc1cc(Cl)c(CSc2nc(C=O)ccc2C#N)cc1Cl [Compound XXI]
- IC50 [1]: < 3.2 µM

SMILES: N#Cc1ccc(C=O)nc1SCc1c(Cl)c(Cl)c(CSc2nc(C=O)ccc2C#N)c(Cl)c1Cl [Compound XXVIII]
- IC50 [1]: < 3.2 µM

SMILES: N#Cc1ccc(C=O)nc1SCc1cccc2cccc(CSc3nc(C=O)ccc3C#N)c12 [Compound XXVII]
- IC50 [1]: < 3.2 µM

SMILES: N#Cc1ccc(C=O)nc1SCc1cc2ccccc2cc1CSc1nc(C=O)ccc1C#N [Compound XXVI]
- IC50 [1]: 6 µM

SMILES: N#Cc1ccc(C=O)nc1SCc1cc(Br)ccc1-c1ccc(Br)cc1CSc1nc(C=O)ccc1C#N [Compound XXV]
- IC50 [1]: < 3.2 µM

SMILES: N#Cc1ccc(C=O)nc1SCCCCSc1nc(C=O)ccc1C#N [Compound XXXIV]
- IC50 [1]: 7 µM

SMILES: Cc1c(CSc2nc(C=O)ccc2C#N)c(C)c(CSc2nc(C=O)ccc2C#N)c(C)c1CSc1nc(C=O)ccc1C#N [Compound XXXI]
- IC50 [1]: < 3.2 µM

SMILES: N#Cc1ccc(C=O)nc1SCC#CCSc1nc(C=O)ccc1C#N [Compound XXXVI]
- IC50 [1]: 5 µM

SMILES: N#Cc1ccc(C=O)nc1SCC=CCSc1nc(C=O)ccc1C#N [Compound XXXV]
- IC50 [1]: 10 µM

SMILES: N#Cc1ccc(C=O)nc1SCc1ccc2ccccc2c1CSc1nc(C=O)ccc1C#N [Compound XXX]
- IC50 [1]: 7 µM

SMILES: Cc1c(C)c(C)c(CSc2nc(C=O)ccc2C#N)c(CSc2nc(C=O)ccc2C#N)c1C [Compound XX]
- IC50 [1]: < 3.2 µM

SMILES: N#Cc1ccc(C=O)nc1SCC(=O)c1ccc(Cl)c(Cl)c1 [Compound X]
- IC50 [1]: 10.9 µM

SMILES: Cc1c(C)c(C)c(CSc2nc(C=O)ccc2C#N)c(C)c1C [III]
- IC50 [1]: 9 µM

SMILES: N#Cc1ccc(C=O)nc1SCc1ccc(C(F)(F)F)cc1 [IV]
- IC50 [1]: 18 µM

SMILES: CCc1c(CSc2nc(C=O)ccc2C#N)ccc2c1C(C)(C)CCC2(C)C [VIII]
- IC50 [1]: 21 µM

SMILES: CC1(C)CCC(C)(C)c2cc(CSc3nc(C=O)ccc3C#N)ccc21 [VII]
- IC50 [1]: 8 µM

SMILES: N#Cc1ccc(C=O)nc1SCc1c(Cl)cccc1Cl [VI]
- IC50 [1]: 7 µM

SMILES: N#Cc1ccc(C=O)nc1SCc1cc(CSc2nc(C=O)ccc2C#N)c(CSc2nc(C=O)ccc2C#N)cc1CSc1nc(C=O)ccc1C#N [XXXIII]
- IC50 [1]: < 3.2 µM

SMILES: N#Cc1ccc(C=O)nc1SCc1ccc(CSc2nc(C=O)ccc2C#N)c(CSc2nc(C=O)ccc2C#N)c1CSc1nc(C=O)ccc1C#N [XXXII]
- IC50 [1]: < 3.2 µM
